Laboratory results: patent publication US20080014288A1, “Zinc-containing treatments for hyperphosphatemia” (priority 2004, published 2008)
“Also recorded” adds a separate entry of the source.

Test system: house male Sprague Dawley (SD) rats
Assay: In vivo urinary phosphate excretion in rats fed test substance mixed in Purina 5002 diet
Parameters: species or system rat
Conditions: for % Urinary Phosphate Relative to that of Control Animals / Phosphate Excretion: Table 1; for Phosphate Excretion: urine collected on days 5 and 6; for amounts of urinary phosphate compared with control (in words): rats on zinc therapy vs control which did not go through the zinc therapy
Protocol: House male Sprague Dawley (SD) rats were used for the experiments.
To establish baseline phosphorus excretion, the rats were placed in metabolic cages for 48 hours. Their urine was collected and its phosphorus content analyzed with a Hitachi analyzer to determine phosphorus excretion in mg/day. Any rats with outlying values were excluded; and the remainder of the rats was distributed into groups.
Cellulose at 0.5% by weight was used as a negative control. For each rat, 200 g of diet was prepared.
Each rat was weighed and placed on the standard diet. After 4 days the standard diet was replaced with the treatment diet (or control diet for the control group). On days 5 and 6, urine samples from the rats at 24 hours (±30 minutes) were collected and analyzed. The test rats were again weighed, and any weight loss or gain was calculated. Any remaining food was also weighed to calculate the amount of food consumed per day. A change in phosphorus excretion relative to baseline and cellulose negative control was calculated using Excel program.
A change in phosphorus excretion relative to baseline and cellulose negative control was calculated using Excel program.

[1] = 0.5% of diet by weight in Purina 5002, cellulose 0.5% negative control
[2] = 0.5% of diet by weight in Purina 5002

| SMILES | % Urinary Phosphate Relative to that of Control Animals [1] | Phosphate Excretion [2] | amounts of urinary phosphate compared with control (in words) | amounts of urinary phosphate compared with control (in words) (listed as zinc acetate dihydrate) | amounts of urinary phosphate compared with control (in words) (citrate dihydrate) | amounts of urinary phosphate compared with control (in words) (monohydrate) | % Urinary Phosphate Relative to that of Control Animals (0.25% of diet by weight in Purina 5002, cellulose negative control) | Phosphate Excretion (0.25% of diet by weight in Purina 5002) |
| --- | --- | --- | --- | --- | --- | --- | --- | --- |
| O=C[O-].O=C[O-].[Zn+2] [Zinc Formate] | 48.5% | 10.1 mg/day | much lower |  |  |  |  |  |
| O=C([O-])C(=O)[O-].[Zn+2] [Zinc Oxalate] | 78.0% | 16.2 mg/day | much lower |  |  |  |  |  |
| CC(=O)[O-].CC(=O)[O-].O.O.[Zn+2] [Zinc acetate dehydrate] | 56.7% | 9.4 mg/day | much lower | substantially reduce |  |  |  |  |
| [Cl-].[Cl-].[Zn+2] [Zinc chloride] | 50.6% | 8.8 mg/day | much lower; also recorded: substantially reduce |  |  |  |  |  |
| O.O.O=C([O-])CC(O)(CC(=O)[O-])C(=O)[O-].O=C([O-])CC(O)(CC(=O)[O-])C(=O)[O-].[Zn+2].[Zn+2].[Zn+2] [Zinc citrate dihydrate] | 70.8% | 12 mg/day |  |  | much lower; also recorded: substantially reduce |  |  |  |
| NCC(=O)[O-].NCC(=O)[O-].O.[Zn+2] [Zinc glycinate monohydrate] | 79.7% | 15.5 mg/day |  |  |  | much lower; also recorded: substantially reduce |  |  |
| [O]=[Zn] [Zinc oxide] | 18.4% | 3.2 mg/day | much lower; also recorded: substantially reduce |  |  |  |  |  |
| [O-2].[Zn+2] [zinc oxide, nanopowder, zinc oxide] |  |  |  |  |  |  | 50.7% | 9.7 mg/day |
